Measured values as given in patent US20120165315A1, “[…] PRODRUG SALTS” (priority 2010, published 2012).

Experiments:
[1] = Hygroscopicity of the free base and its salts; type: physicochemical; details: solid form
From the text: (§1) The advantageous properties of salts according to the invention can be seen from the table below:
(§2) The salts were all obtained in good yields.

[2] = Thermal profile / melt event of the free base and its salts; type: physicochemical; details: solid form
From the text: as §1, §2

[3] = Norbury et al. 1983; cited from earlier work
[4] = Balikova et al. 2001; cited from earlier work
[5] = rat model; Lu et al. 2005, Xie et al. 2005; cited from earlier work
[6] = listed as maleic acid addition salt

Row | Molecule | Hygroscopic [1] | Good thermal profile with clean melt event [2] | also measured
1 | CCC1(c2cccc(OC(=O)Nc3ccc(C(=O)O)cc3)c2)CCCCN(C)C1.O=C(O)/C=C\C(=O)O (stereo not drawn) [Meptazinol PABA Carbamate Maleic Acid Addition Salt] | no | yes | Hygroscopic [1, 6]: not be hygroscopic; Good thermal profile with clean melt event [2, 6]: good thermal profiles with clean melt events
2 | CCC1(c2cccc(OC(=O)Nc3ccc(C(=O)O)cc3)c2)CCCCN(C)C1.O=C(O)CC(=O)O (stereo not drawn) [Meptazinol PABA Carbamate Malonic Acid Addition Salt] | not be hygroscopic and no | yes | Good thermal profile with clean melt event ([2]; listed as malonic acid addition salt): good thermal profiles with clean melt events
3 | CCC1(c2cccc(OC(=O)Nc3ccc(C(=O)O)cc3)c2)CCCCN(C)C1.CS(=O)(=O)O (stereo not drawn) [Meptazinol PABA Carbamate Methanesulphonic Acid Addition Salt] | not be hygroscopic and no | yes | Good thermal profile with clean melt event ([2]; listed as methanesulphonic acid addition salt): good thermal profiles with clean melt events
4 | CCC1(c2cccc(OC(=O)Nc3ccc(C(=O)O)cc3)c2)CCCCN(C)C1.O=P(O)(O)O (stereo not drawn) [Meptazinol PABA Carbamate Phosphoric Acid Addition Salt] | no | no | Hygroscopic ([1]; listed as phosphoric acid addition salt): not be hygroscopic
5 | CCC1(c2cccc(OC(=O)Nc3ccc(C(=O)O)cc3)c2)CCCCN(C)C1.O=S(=O)(O)O (stereo not drawn) [Meptazinol PABA Carbamate Sulphuric Acid Addition Salt] | not be hygroscopic and no | yes | Good thermal profile with clean melt event ([2]; listed as sulphuric acid addition salt): good thermal profiles with clean melt events
6 | CCC1(c2cccc(O)c2)CCCCN(C)C1 (stereo not drawn) [Meptazinol] |  |  | oral bioavailability [3]: < 10%
7 | COc1ccc2c3c1O[C@H]1[C@@H](O)CC[C@H]4[C@@H](C2)N(C)CC[C@@]341 [dihydrocodeine] |  |  | share of an oral dose converted to dihydromorphine [4]: less than 2%
8 | CCC1(c2cccc(OC(=O)Nc3ccc(C(=O)O)cc3)c2)CCCCN(C)C1 (stereo not drawn) [meptazinol p-amino-benzoylcarbamate, Meptazinol para-amino benzoic acid carbamate] | yes | no | Hygroscopic ([1]; listed as meptazinol p-amino-benzoic acid carbamate): very hygroscopic
9 | CCC1(c2cccc(OC(=O)Nc3ccc(C(=O)O)cc3)c2)CCCCN(C)C1.Cl (stereo not drawn) [meptazinol p-amino-benzoylcarbamate•HCl] | yes | no | 
10 | (Z)-3-[2-(propionyloxy)phenyl]-2-propenoic ester |  |  | bioavailability over meptazinol itself [5]: significant increase
